Format in all cases: functional, cell-based
The subject of one test is A549. Description: Compound was tested for inhibition of cell growth of A-549 cells. The settings on record: Homo sapiens.
A further test relates to HT-29. Description: Compound was tested for inhibition of cell growth of HT-29 cells. The settings on record: Homo sapiens.
Test [1] in a line: Compound was tested for inhibition of cell growth of MEL-28 cells. The conditions noted are these: Homo sapiens, SK-MEL-28.
The next test deals with P388. Description: Compound was tested for inhibition of cell growth of P-388 cells. The settings on record: Mus musculus.
In the next test the test system is L1210. Nature of the test: Compound was tested for inhibition of cell growth of L1210 leukemia cells. The settings on record: Mus musculus.

The term IC50 denotes the concentration at which inhibition is half-maximal. Turning to `COc1ccc(C(=O)Cc2cc(OC)c(OC)c(OC)c2)cc1OC`, the concentration for half-maximal inhibition (IC50) (in the test on A549; with HT-29; in test [1]; in the test with P388) was more than 28.9 µM throughout.

Turning to `COc1cc(CCc2ccc3c(c2)OCO3)cc(OC)c1OC`, the IC50 (with A549; in the test on HT-29; in test [1]; in the test with P388) was 6.3 µM each time.

Consider `COc1ccc(CCc2cc(OC)c(OC)c(OC)c2)cc1OC`, for which the IC50 (in the test with A549; in the test on HT-29; in test [1]; with P388) was 15 µM in each case.

Regarding `COc1cc(CC2(c3ccc4c(c3)OCO4)SCCCS2)cc(OC)c1OC`, the IC50 with A549 was determined as 5.9 µM; with HT-29 it was 5.9 µM; in test [1] it was 4.7 µM; in the test on P388, 5.9 µM.

Regarding `Oc1ccc(CCc2ccc3c(c2)OCO3)cc1`, the concentration for half-maximal inhibition (IC50) in the test with A549 was more than 41.2 µM; in the test on HT-29, more than 41.2 µM; in test [1], more than 41.2 µM; in the test with P388, 41.2 µM.

`c1ccc2cc(C3SCCCS3)ccc2c1` showed an IC50 in the test with L1210 of 20 µM.

Consider `COc1cc(C(=O)Cc2cc(OC)c(OC)c(OC)c2)ccc1O`, for which the IC50 was more than 30 µM in the test on A549, more than 30 µM with HT-29, more than 30 µM in test [1] and 30 µM in the test with P388.

For the compound `COc1cc(CC2(c3ccc4ccccc4c3)SCCCS2)cc(OC)c1OC`, the IC50 stood at 5.8 µM in the test with A549, 5.8 µM in the test on HT-29, 11.7 µM in test [1] and 5.8 µM in the test on P388.

On to `COc1ccc(C(O)Cc2cc(OC)c(OC)c(OC)c2)cc1OC` (centres undefined), for which the 50% inhibitory concentration (IC50) is more than 28.7 µM with A549, more than 28.7 µM in the test with HT-29, more than 28.7 µM in test [1] and 28.7 µM with P388.

As for `COc1cc(CC(=O)c2ccc3ccccc3c2)cc(OC)c1OC`, the half-inhibitory concentration (IC50) in the test with A549 was 14.8 µM; in the test on HT-29 it was 29.7 µM; in test [1], 14.8 µM; with P388, 14.8 µM.

Take `COc1ccc(C2(Cc3cc(OC)c(OC)c(OC)c3)SCCCS2)cc1OC`: the half-inhibitory concentration (IC50) with A549 was 22.9 µM; in the test with HT-29 it was 22.9 µM; in test [1], more than 22.9 µM; in the test on P388, 22.9 µM.

In the case of `COc1cc(CCc2ccc3ccccc3c2)cc(OC)c1OC`, the IC50 (with A549; with HT-29; in test [1]; with P388) was 0.3 µM in each case.

In the case of `COc1cc([C@@H]2c3cc4c(cc3[C@H](O)[C@H]3COC(=O)[C@H]23)OCO4)cc(OC)c1OC` [PODOFILOX], the IC50 in the test with A549 worked out at 0.05 µM; with HT-29 it was 0.05 µM; in test [1], 0.06 µM; in the test with P388 it was 0.05 µM.

For the origin of these results see ChEMBL document CHEMBL1128115, “Synthesis and pharmacological activity of combretastatin analogues. Naphthylcombretastatins and related compounds” (Bioorg Med Chem Lett, 1995).
